Test results taken from US8470805B2, “Processes for preparing piperazinium salts of KMUP and use thereof” (Kaohsiung Medical University, priority 2009, dated 2013).

Assays:
[1] = test system: C57BL/6J mice; assay: The lipid-lowering effect in C57BL/6J mice (high-fat diet); format: in vivo; conditions: HFD, after 21 days
Method: (§1) 8-week C57BL/6J mice are divided into standard diet (STD) group and the high-fat diet (HFD) group. In the HFD group, the KMUP-1 HCl salt (1, 2.5 and 5 mg/kg), the simvastatin (5 mg/kg), the KMUP-1-Nicotinic acid complex (1 and 5 mg/kg), the KMUP-1-Simvastatinic acid complex (1 and 5 mg/kg), KMUP-1-Gemfibrozil complex (2.5 mg/kg), KMUP-1-Fibric acid complex (2.5 mg/kg), KMUP-1-γ-polyglutamic acid complex (2.5 mg/kg) and KMUP-1-Citric acid complex (2.5 mg/kg) are administered orally. After 21 days, the amounts (mg/dl) of the triglyceride (TG), the total cholesterol (tot.-C), the high density lipoprotein cholesterol (HDL-C), the low density lipoprotein cholesterol (LDL-C) and the serum glucose of six mice for each group are measured as shown in Tables 2 and 3.

[2] = test system: TGF-β; assay: Bleomycin-induced lung fibrosis in mice, TGF-β expression by EIA; format: in vivo; conditions: bleomycin 60 mg/kg
Method: 6. KMUP-1 salts inhibit the lung fibrosis in mice induced by bleomycin (BM) mediated via transforming growth factor beta (TGF-β) expression in lung The increased amount of the synthetic collagen and the generation of the macrophage in alveolus may facilitate the formulation of TGF-β, and the expression of TGF-β is looked as a biomarker of the lung fibrosis. […] The state of the TGF-β expression in the irrigation solution is measured by the enzyme immunoassay (EIA).

[3] = test system: monocrotaline (MCT)-treated rats; assay: Pulmonary artery blood pressure in monocrotaline (MCT)-treated rats; format: in vivo, male Wistar rats
Method: 5. the monocrotaline (MCT)-treated rats show the […] pulmonary aterial hypertension
Pulmonary aterial hypertension in MCT-treated rats is caused on day 21 after the intraperitoneal injection. Orally administered KMUP-1 HCl salt (2.5 mg/kg), simvastatin (2.5 mg/kg), KMUP-1-nicotinic acid complex (2.5 mg/kg), KMUP-1-Citric acid complex (2.5 mg/kg), KMUP-1-Simvastatinic acid complex (2.5 mg/kg) and KMUP-1-γ-Polyglutamic acid complex (2.5 mg/kg), or the inhalated KMUP-1-PGI2 (0.1 mM) every day may inhibit the male Wistar rats treated with MCT, which show the effect of decreasing the pulmonary artery blood pressure (PABP).

[4] = test system: RAW 264.7 cells; assay: Inhibition of RANKL-induced osteoclast differentiation (TRAP staining); format: cell-based; conditions: 5 μM, RANKL 10 μg/ml, 5 days, n=5
[5] = test system: U46619-induced platelet aggregation; assay: Antiplatelet aggregation activity (U46619-induced, turbidity, Lumi-aggregometer); format: cell-based; conditions: 20 μM, rabbit platelets, n=8
Method: 4. […] After centrifuging at […] for 10 mins, the supernatant is platelet-rich plasma (PRP). The platelet suspension is obtained from EDTA-anticoagulated PRP, and the platelet granules are finally suspended in the Tyrode's solution. […] The turbidity is measured at 37° C. by Lumi-aggregometer connected with two dual channel recorders as the aggregation.

[6] = test system: testosterone-induced mice; assay: Prostate hypertrophy (BPH) in testosterone-induced mice; format: in vivo; conditions: 2.5 mg/kg, testosterone 3 mg/kg/day for 4 weeks, day 28, n=6
Method: The testosterone (TS, 3 mg/kg/day) is administered for 4 weeks for inducing BPH in mice, which combines with KMUP-1 HCl salt (2.5 mg/kg), KMUP-1-Citric acid (2.5 mg/kg) and KMUP-1-Nicotinic acid (2.5 mg/kg), and the ratio of hypertrophy (g)/body weight (g) is measured at day 28 (n=6).

[7] = test system: H1N1 virus; format: cell-based; conditions: MDCK culture infected with H1N1 virus; for IC50: n=6
[8] = test system: C57BL/6J mice; assay: The amount of the serum glucose and insulin in C57BL/6J mice (high-fat diet); format: in vivo; set-up: The amount of serum insulin: unit not given here; conditions: 1 mg/kg orally, HFD, after 21 days
Method: as §1

[9] = test system: L1210 leukemia cell line; assay: Cytotoxicity to cancer cells, MTT assay; format: cell-based; conditions: 3 days, n=6
Method: The methotrexate (MTX) is served as the positive control group. Briefly, the cancer cells (5000-10000 cells/ml) is added together with the compounds to be tested into each well of 96-well plate. After culturing for 3 days, the attached cells are cultured in MTT (0.5 mg/ml) for one hour, followed by dissolving the formazan crystal with dimethyl sulfoxide (DMSO). The absorption at 550 nm wave length is measured by the enzyme linked immunosorbent assay (ELISA) reader. IC50 is the concentration of the tested compound for inhibiting 50% cell growth under the experimental conditions.

[10] = test system: STZ-induced diabetic rats; assay: Serum glucose and body weight in streptozosin (STZ)-induced diabetic rats; format: in vivo; conditions: 5 mg/kg orally, after 21 days
Method: 2. The effect of KMUP-1 on decreasing the amount of the serum glucose in streptozosin (STZ)-induced diabetic rats
60 mg/kg of streptozosin is injected intravenously for inducing the STZ-induced rats, and the KMUP-1 HCl salt (0.5, 1.5, 2.5 and 5 mg/kg) and KMUP-1-Simvastatinic acid (5 mg/kg) are administered orally. After 21 days, the amount of the serum glucose (mg/dl), the amount of the serum insulin (mg/dl), the body weight (g) and the change of the body weight are measured.

## KMUP-1-γ-polyglutamate complex [KMUP-1-γ-polyglutamic acid]
[1]; 2.5 mg/kg orally
  HDL-C: 97.3 ± 1.6 mg/dL
  LDL-C: 16.5 ± 0.9 mg/dL
  TG: 78.2 ± 3.6 mg/dL
  tot.-C: 129.4 ± 1.4 mg/dL
[2]; 2.5 mg/kg orally
  Changing % of the lung TGF-β: 42 ± 1.6 %
[3]; 2.5 mg/kg/day p.o.
  PABP: 11 ± 0.6 mmHg

## CCC(C)(C)C(=O)O[C@H]1C[C@@H](C)C=C2C=C[C@H](C)[C@H](CC[C@@H]3C[C@@H](O)CC(=O)O3)[C@H]21 [Simvastatin, simvastatin, reference compound]
[1]; 5 mg/kg orally
  HDL-C: 103.18 ± 2.5 mg/dL
  LDL-C: 15.3 ± 1.3 mg/dL
  TG: 82.67 ± 6.3 mg/dL
  tot.-C: 133.67 ± 4.3 mg/dL
[4]
  TRAP-Positive Cells: 85 ± 7
[2]; 5 mg/kg orally
  Changing % of the lung TGF-β: 40 ± 4.3 %

## Cn1c(=O)c2c(ncn2CCN2CCN(c3ccccc3Cl)CC2)n(C)c1=O.O=C(O)CC(O)(CC(=O)O)C(=O)O [KMUP-1-Citric acid, KMUP-1-Citric acid salt]
[1]; 2.5 mg/kg orally
  HDL-C: 108.4 ± 1.3 mg/dL
  LDL-C: 16.4 ± 1.7 mg/dL
  TG: 83.2 ± 5.3 mg/dL
  tot.-C: 129.7 ± 1.6 mg/dL
[5]
  The ratio of the antiplatelet aggregation: 78 ± 2.7 %
[6]
  hypertrophy (g)/body weight (g): 0.23 ± 0.05
[3]; 2.5 mg/kg/day p.o.
  PABP: 16 ± 1.8 mmHg

## CC[C@H](C)C(=O)O[C@H]1C[C@@H](C)C=C2C=C[C@H](C)[C@H](CC[C@@H](O)C[C@@H](O)CC(=O)O)[C@H]21.Cn1c(=O)c2c(ncn2CCN2CCN(c3ccccc3Cl)CC2)n(C)c1=O [KMUP-1-Lovastatinic acid, KMUP-1-Lovastatinic acid complex]
[4]
  TRAP-Positive Cells: 73 ± 6
[7]
  IC50: 1.9 µg/mL

## Cn1c(=O)c2c(ncn2CCN2CCN(c3ccccc3Cl)CC2)n(C)c1=O.O=C(O)c1cccnc1 [KMUP-1-Nicotinic acid, KMUP-1-Nicotinic acid salt]
[1]; 5 mg/kg orally
  HDL-C: 97.98 ± 3.4 mg/dL
  LDL-C: 13.8 ± 1.2 mg/dL
  TG: 80.75 ± 7.9 mg/dL
  tot.-C: 130 ± 4.1 mg/dL
[2]; 2.5 mg/kg orally
  Changing % of the lung TGF-β: 42 ± 3.8 %
[6]
  hypertrophy (g)/body weight (g): 0.19 ± 0.07
[8]
  The amount of serum glucose: 123.5 ± 2.5 mg/dL
[3]; 2.5 mg/kg/day p.o.
  PABP: 12 ± 2.6 mmHg

## CN(Cc1cnc2nc(N)nc(N)c2n1)c1ccc(C(=O)N[C@@H](CCC(=O)O)C(=O)O)cc1 [MTX, methotrexate, reference compound]
[9]; Mus musculus, 72 h
  IC50: 12 nM

## CCC(C)(C)C(=O)O[C@H]1C[C@@H](C)C=C2C=C[C@H](C)[C@H](CC[C@@H](O)C[C@@H](O)CC(=O)O)[C@H]21.Cn1c(=O)c2c(ncn2CCN2CCN(c3ccccc3Cl)CC2)n(C)c1=O [KMUP-1-Simvastatinic acid, KMUP-1-Simvastatinic acid complex]
[1]; 5 mg/kg orally
  HDL-C: 108.4 ± 1.3 mg/dL
  LDL-C: 17.3 ± 1.4 mg/dL
  TG: 81.2 ± 4.4 mg/dL
  tot.-C: 129.7 ± 1.4 mg/dL
[4]
  TRAP-Positive Cells: 72 ± 5
[7]; in glucose solution
  growth of the virus (in words): can inhibit the growth of the virus
[7]
  IC50: 1.8 µg/mL
[10]
  The amount of the serum glucose: 194.2 ± 16.1 mg/dL
[2]; 2.5 mg/kg orally
  Changing % of the lung TGF-β: 45 ± 4.5 %
[8]
  The amount of serum glucose: 117.3 ± 3.8 mg/dL
  The amount of serum insulin: 0.85 ± 0.17
[3]; 2.5 mg/kg/day p.o.
  PABP: 12 ± 1.3 mmHg

## KMUP-1-PGI2 complex
[3]; 0.1 mM (inhalation)
  PABP: 10 ± 0.2 mmHg

## COc1ccc2c(c1)c(CC(=O)O)c(C)n2C(=O)c1ccc(Cl)cc1 [Indomethacin, indomethacin, reference compound]
[5]
  The ratio of the antiplatelet aggregation: 87 ± 8.3 %

## CN(Cc1cnc2nc(N)nc(N)c2n1)c1ccc(C(=O)N[C@@H](CCC(=O)O)C(=O)O)cc1.Cn1c(=O)c2c(ncn2CCN2CCN(c3ccccc3Cl)CC2)n(C)c1=O [KMUP-1-MTX, KMUP-1-Methotrexate (MTX) Complex]
[9]
  IC50: 20 nM

## COc1ccc2c(c1)c(CC(=O)O)c(C)n2C(=O)c1ccc(Cl)cc1.Cn1c(=O)c2c(ncn2CCN2CCN(c3ccccc3Cl)CC2)n(C)c1=O [KMUP-1-Indomethacin, KMUP-1-Indomethacin complex]
[5]
  The ratio of the antiplatelet aggregation: 92 ± 5.8 %
